A short description of series [1]: Bortezomib plasma pharmacokinetics in patients. It is filed as in vivo, human. The note with it: CYP IC50 vs Cmax at 1.3 mg/m2.
Description: The relationship between plasma concentration and proteasome inhibition was assessed at 1, 6, and 24 h over a 24-hour period.
The subject of series [2] is 20S proteasome. The note with it: cited from earlier work; for inhibition of 20S proteasome activity: patients, single agent, after 1-h treatment.
The conditions of series [3]: cited from earlier work.
The subject of series [4] is CYP450 isozyme 1A2. The settings on record: human liver microsomes (~7 µg/mL); cited from earlier work.
The subject of series [5] is CYP450 isozyme 2C9. The note with it: human liver microsomes (~7 µg/mL); cited from earlier work. Background: Microsomes from liver hold many membrane-bound enzymes, among them those of drug oxidation.
Series [6] relates to CYP450 isozyme 2C19. The settings on record: human liver microsomes (~7 µg/mL); cited from earlier work.
The test system of series [7] is CYP450 isozyme 2D6. The note with it: human liver microsomes (~7 µg/mL); cited from earlier work.
The subject of series [8] is CYP450 isozyme 3A4. The note with it: human liver microsomes (~7 µg/mL); cited from earlier work.
Series [9] relates to proteasome subunits. The note with it: summary table; cited from earlier work.
For series [10] the following is noted: summary table; cited from earlier work.
For series [11] the following is noted: summary table; cited from earlier work. The source holds these as a separate data set.
Details of series [12]: method as in PMID 30128949. The note with it: AUC0–816h time-proportional pooled plasma, single 4.1-mg oral dose [14C]-ixazomib, four patients; cited from earlier work.
On the set-up of series [13]: method as in PMID 28428366. The settings on record: human hepatocytes, quantified with synthesized standards; cited from earlier work.
On the set-up of series [14]: method as in PMID 19348473. The settings on record: mice; cited from earlier work.
Details of series [15]: method as in PMID 19348473. The settings on record: rats; cited from earlier work.
On the set-up of series [16]: method as in PMID 19348473. The note with it: dogs; cited from earlier work.
The conditions of series [17]: single agent, cited from earlier work.
For series [18], the system named is proteasome. Further details: method as in PMID 31142508. The note with it: at MTD, 4 h post-dose; cited from earlier work.
Details of series [19]: method as in PMID 28428366. The settings on record: pooled HLMs, cited from earlier work.
A short description of series [20]: KZR-616 and metabolites in human plasma of SLE patients. It is filed as in vivo. The note with it: KZR-616 75 mg. On the procedure:
Following repeat-dose SC administration, there was no apparent accumulation of immunoproteasome inhibition, although cumulative constitutive proteasome inhibition in whole blood was observed, likely due to the irreversible mechanism of KZR-616 inhibition and the inability of enucleated red blood cells (the major cellular source of constitutive proteasome) to produce new proteasomes. […] As in carfilzomib, and oprozomib, KZR-616 was not stable when incubated in HLMs in the absence of NADPH, indicating non-CYP enzymes were involved in its clearance. […] In pooled plasma samples from 4 patients with systemic lupus erythematous (SLE) receiving a KZR-616 dose of 75 mg, the diol was the major metabolite, and other metabolites from oxidation, hydrolysis + dehydrogenation, oxidation + dehydrogenation double oxidation were less than 1% of the total peak area of all components (Table 2).

Series [21] can be described thus: PK of KZR-616 and analogs after single SC dose in monkeys. The settings on record: cynomolgus monkey, in vivo, single SC dose 3 mg/kg. As for the experimental part:
(§1) To further evaluate the role of epoxide hydrolase in the metabolism of KZR-616, two analogs were selected for PK and PD studies in cynomolgus monkey to compare with KZR-616. […] Following single subcutaneous (SC) administration to monkeys at 3 mg/kg of these 3 compounds AUC values were the highest with KZR-59240, followed by KZR-616 and KZR-59177. The PK of both parent and diol for each compound were consistent with the stability results in MLM in the absence of NADPH, in which the CYP enzymes were not activated (Table 3), and, as predicted, the diol derivatives were determined to be the major metabolites for all compounds. The PK and PD of KZR-616 was assessed using 2 different drug product formulations, one containing 10% (w/v) PS-80, and the other 2% (w/v) trehalose.

The nature of series [22]: PK of KZR-616 in two drug product formulations. The note with it: 10% (w/v) PS-80 vs 2% (w/v) trehalose formulation. In kind it is in vivo. On the procedure:
as §1

In series [23] the test system is LMP7. Further details: method as in PMID 30380863. The note with it: mouse arthritis model, active dose; cited from earlier work.
The subject of series [24] is LMP2. The arrangement: method as in PMID 30380863. The settings on record: mouse arthritis model, active dose; cited from earlier work.
For series [25] the following is noted: healthy volunteers, SC; cited from earlier work.
Details of series [26]: method as in PMID 34234005. The settings on record: absence of NADPH; cited from earlier work.
Series [27] deals with caspase-like activity of the 20S proteasome. The note with it: relative to β5 and LMP7; cited from earlier work.
Series [28] concerns trypsin-like activity of the 20S proteasome. The settings on record: relative to β5 and LMP7; cited from earlier work.
The subject of series [29] is proteasome. Further details: method as in PMID 30117017. The note with it: whole blood, IV administration; cited from earlier work.
For series [30] the following is noted: patients, cited from earlier work.
Series [31] concerns CYP3A4. The note with it: at higher concentrations, recombinant CYP microsomes; cited from earlier work.
For series [32], the system named is CYP1A2. The settings on record: at higher concentrations, recombinant CYP microsomes; cited from earlier work.
In series [33] the test system is CYP2B6. The note with it: at higher concentrations, recombinant CYP microsomes; cited from earlier work.

Structures are written as SMILES. Like-named read-outs stand apart in the source and are kept apart here.

Usually IC50 stands for the concentration that inhibits the measured activity by half. As a reminder, the AUC(0-inf) is the area under the concentration-time curve extrapolated to infinity. The Cmax is the peak of the concentration-time curve. A word on the Tmax: it is the time at which the peak concentration occurs. As usually defined, the half-life is the time needed for the level to fall by half in the phase considered. Read a high half-life as slow decline.

Take `CC(C)C[C@H](NC(=O)[C@H](Cc1ccccc1)NC(=O)c1cnccn1)B(O)O` [Bortezomib]: in series [1], the “CYP450 IC50 values higher than Cmax” value turned out to be 60 fold. Also, the “variation of proteasome inhibition” value in [2] (1 h post-dose) is reported as ~ 70%. For the same compound, the “recovery of proteasome activity” value in series [2] (12 h after administration) is 50%. The “Time to Emax (median)” value was 5 min in [2] (IV administration) and 120 min in [2] (SC administration). For the same compound, the “mean maximum inhibition (Emax)” value in [2] (IV administration) is on record as “approximately 69%”. The “time to complete recovery of proteasome activity” value in series [2] (after administration) is not above 72 h. Further, the “time to full recovery of proteasome activity” value in series [2] (after dosing) is reported as 36 h. In addition, the “time by which recovery of proteasome activity was observed” value in series [2] (assessed at 1, 6 and 24 h) is not above 24 h. In addition, the “inhibition of 20S proteasome activity” value in series [2] (0.40 mg/m2) is listed as 36%; in series [2] (1.04 mg/m2) it was 60%; in [2] (1.20 mg/m2), 65%; in series [2] (1.38 mg/m2), 74%. Moreover, the “variation of plasma concentration” value in series [3] (1 h post-dose) is ~ 800%. Besides, the “increase in bortezomib exposure” value in series [3] (DDI, plus ketoconazole (CYP3A4 inhibitor), patients) is reported as 1.4 fold. In addition, the IC50 in series [4], in series [5], in [6], in series [7] and in series [8] was more than 18 µM throughout. Besides, in series [9], the “Subunit Inhibition” value was “ß5 and LMP7”. In addition, in series [10], the Absorption entry is reported as “fast”. In [10], the Clearance result is reported as “fast”. Besides, the “Metabolic Pathwas” value in series [11] is reported as “Hydrolases, CYPs”.

As for `CC(C)C[C@H](O)NC(=O)[C@H](Cc1ccccc1)NC(=O)c1cnccn1` [M2], the “% of plasma TRA” value in [12] is given as 7.91%.

In the case of `NC(=O)[C@H](Cc1ccccc1)NC(=O)c1cnccn1` [M3], the “% of plasma TRA” value in series [12] is listed as 10.6%.

`COC[C@H](NC(=O)c1cnc(C)s1)C(=O)N[C@@H](COC)C(=O)N[C@@H](Cc1ccccc1)C(=O)[C@](C)(O)CO` [PR-176]: the “percent of total oprozomib recovered as component” value (“percent” for short) in [13] is given as ~ 55%.

Regarding `COC[C@H](NC(=O)c1cnc(C)s1)C(=O)N[C@@H](COC)C(=O)N[C@@H](Cc1ccccc1)C(=O)[C@@]1(C)CO1` [Oprozomib], the “oral bioavailability F%” value in series [14] was 17%; in series [15] it was 21%; in series [16] it was 39%. Besides, the “maximum tolerated dose (MTD)” value in [17] (first 2 days every 7 days of a 14-day cycle (2/7 schedule)) was 300 mg/day; in series [17] (first 5 days of a 14-day cycle (5/14 schedule)) it was 240 mg/day. The proteasome inhibition in [18] is not below 70%. Moreover, in series [13], the “percent” value was 20%. Also, the intrinsic clearance in series [19] (absence of NADPH) was 20.2 ± 1.8 µL/min/mg protein; in [19] (presence of NADPH), 70.7 ± 2.9 µL/min/mg protein. Further, the “increase of intrinsic clearance by NADPH” value in series [19] (presence vs absence of NADPH) is 3.5 fold. The “Subunit Inhibition” value in [9] was “ß5 and LMP7”. Moreover, the Absorption result in series [10] is given as “fast”. In [10], the Clearance result was “fast”. Besides, the “Metabolic Pathwas” value in series [11] is on record as “Microsomal epoxide hydrolase peptidases, CYPs”.

Consider `CC(C)C[C@@H](O)NC(=O)[C@H](Cc1ccccc1)NC(=O)c1cnccn1` [M1], for which the “% of plasma TRA” value in series [12] is 18.9%.

Consider `COc1ccc([C@@H](O)[C@H](NC(=O)[C@H](C)NC(=O)CN2CCOCC2)C(=O)N[C@@H](CC2=CCCC2)C(=O)[C@@]2(C)CO2)cc1` [KZR-616, (2S,3R)-N-((S)-3-(Cyclopent-1-en-1-yl)-1-((R)-2-methyloxiran-2-yl)-1oxopropan-2-yl)-3-hydroxy-3-(4-methoxyphenyl)-2-((S)-2-(2morpholinoacetamido)propanamido)propenamide], for which the “Component in Plasma as % of Total XIC (Extracted Ion Chromatogram) Area” value (“Component in Plasma as % of Total XIC” below) in series [20] (Subject 110-004, SLE patient) was found to be 61.2%. Moreover, the “Component in Plasma as % of Total XIC” value in series [20] (Subject 112-021, SLE patient) is 49.0%. The “Component in Plasma as % of Total XIC” value in series [20] (Subject 113-002, SLE patient) is reported as 46.5%. For the same compound, the “Component in Plasma as % of Total XIC” value in [20] (Subject 116-012, SLE patient) was 51.8%. For the same compound, in [21], the area under the curve AUC(0-inf) was 740 ± 188 ng·h/mL, the Cmax was 441 ± 114 ng/mL, the Tmax worked out at 0.333 ± 0.136 h and the half-life is 1.05 ± 0.13 h. Besides, in series [22], the “difference in Cmax between formulations” value worked out at 2 fold and the “total exposure (AUC) in both formulations” value is recorded as “equivalent”. The LMP7 inhibition entry in [23] is “complete”. Moreover, the LMP2 inhibition in series [24] is recorded as ~ 40%. Further, in series [25], the Tmax was less than 1 h and the t1/2 is listed as less than 4 h. Moreover, in [26], the “stability in HLMs” value is recorded as “not stable”. Besides, the “Subunit Inhibition” value in series [9] is “LMP2 and LMP7”. Moreover, in [10], the Absorption result is on record as “fast” and the Clearance entry is recorded as “fast”. In addition, the “Metabolic Pathwas” value in series [11] is “Microsomal epoxide hydrolase”.

With `COc1ccc(C(O)C(NC(=O)C(C)NC(=O)CN2CCOCC2)C(=O)NC(CC2=CCCC2)C(=O)C(C)(O)CO)cc1` (stereo not shown) [KZR-59587], the “Component in Plasma as % of Total XIC” value in [20] (Subject 110-004, SLE patient) is given as 33.8%; in series [20] (Subject 112-021, SLE patient), 45.8%; in series [20] (Subject 113-002, SLE patient) it was 47.9%; in series [20] (Subject 116-012, SLE patient), 43.8%.

For `C[C@@](O)(CO)C(=O)[C@@H](N)Cc1ccccc1` [diol of PR-025], the “percent” value in series [13] is recorded as ~ 7%.

On to `CC(C)C[C@H](NC(=O)CNC(=O)c1cc(Cl)ccc1Cl)B(O)O` [Ixazomib], for which the “less potency than for chymotrypsin-like activities” value in [27] was 10 fold; in series [28] it was 1000 fold. Moreover, the “time to recovery of proteasome inhibition” value in series [29] was not above 24 h. Moreover, in series [30] (oral), the Tmax entry is “approximately 1 h”. The apparent clearance in [30] is ~ 1.9 L/h. For the same compound, the contribution to metabolism is reported as 42% in series [31], 26% in series [32] and 16% in series [33]. The “% of plasma TRA” value in [12] was 54.2%. Also, the “Subunit Inhibition” value in series [9] is “ß5 and LMP7”. For the same compound, in series [10], the Absorption result is recorded as “fast”. Moreover, the Clearance result in [10] is reported as “fast”. Also, in series [11], the “Metabolic Pathwas” value is recorded as “Hydrolases, CYPs”.
